Values joined by “and” are separate entries in the source; they are usually repeats but may differ in a detail not shown here. Identical values can stand only once. Each block holds one compound with its values, some of them ahead of it.
Assays:
Assay type in all cases: biochemical
[1] = test system: tritosomes; experiment: Indigoid dye formation with tritosomes; settings: result in words
Procedure: The results from the glucosidase survey prompted several further experiments. First, a parallel set of studies was carried out with inclusion of several oxidants commonly employed in histochemical studies, given that the indigoid dye forming process requires the presence of an oxidant. […] The activity of the β-glucosidase was affected only slightly in the presence of a non-ionic detergent. To verify that the results observed in Table 1 were reliable, a 5-mg scale reaction of 33 was carried out to isolate indigo 43, which was obtained in 66% yield (Scheme 7). The 66% isolated yield corresponded well with the enzymatic yield of […] (Table 1, entry 15).
General methods. β-Glucosidase from almonds (lyophilized powder, ≥2 units/mg solid) and peroxidase from horseradish were purchased from Sigma-Aldrich. β-Glucosidase from Agrobacterium sp. (recombinant, suspension in 3.2 M (NH4)2SO4) was purchased from Megazyme; the concentration in solution was determined by absorption spectroscopy with E^0.1%=2.20 cm^−1 at 280 nm.^37 Tritosomes were purchased from XenoTech. Rat liver homogenate was purchased from MP Biomedicals.

[2] = test system: β-glucosidase from almonds; experiment: Indigogenic reaction with β-glucosidase from almonds
[3] = biological target: T1, β-glucosidase from Agrobacterium (Agrobacterium sp., UniProt P12614); experiment: Enzyme-triggered oligomerization of bis(indoxyl-glucoside) 46
T1 construct: purchased Megazyme
T1 sequence (P12614 1-459): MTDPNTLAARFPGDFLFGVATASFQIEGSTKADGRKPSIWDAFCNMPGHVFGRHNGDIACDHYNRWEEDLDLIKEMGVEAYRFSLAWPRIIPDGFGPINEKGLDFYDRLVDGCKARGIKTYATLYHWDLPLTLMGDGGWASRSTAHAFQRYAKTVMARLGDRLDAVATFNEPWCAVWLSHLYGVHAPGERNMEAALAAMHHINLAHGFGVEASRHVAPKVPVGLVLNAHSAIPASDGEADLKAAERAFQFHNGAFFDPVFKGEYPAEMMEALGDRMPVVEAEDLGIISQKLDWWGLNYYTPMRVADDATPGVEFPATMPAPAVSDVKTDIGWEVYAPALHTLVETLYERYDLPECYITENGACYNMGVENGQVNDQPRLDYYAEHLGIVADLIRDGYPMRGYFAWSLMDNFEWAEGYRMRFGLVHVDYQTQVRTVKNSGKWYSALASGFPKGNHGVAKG
Procedure: Oligomerization of 46 was carried out by treatment with β-glucosidase from Agrobacterium (200 nM) in 10 mM phosphate buffer (pH 7) at 37° C. for 2-4 h (Scheme 9). Precipitation occurred during the reaction. After centrifugation, the precipitate was separated from the supernatant, washed with H2O, and dried to afford a blue solid.
The efficacy of the indigogenic oligomerization was examined under a variety of conditions. As shown in entries 1-4 in Table 2, the yield of indigoid dye in the supernatant versus precipitate reversed as the concentration of 46 was decreased from 300 to 10 μM, although the total yields were in the range 17-29%. While the reactions in entries 1-4 were carried out in phosphate buffer containing NaCl (0.05 M), those of entries 5 and 6 (with 300 and 50 μM of 46, respectively) were conducted in NaCl-free phosphate buffer. The use of NaCl-free phosphate buffer facilitated extraction of the indigoid dye in the supernatant for analysis.
The time course of the oligomerization was examined under the reaction conditions listed in entry 5 of Table 2, with 300 μM of 46. Noticeable changes include observation of blue clouding and color deepening at 20 min. Centrifugation enabled isolation of the precipitate. […] The absorption spectrum of the precipitate was examined in DMF/DMSO (9:1) and compared with that of the extracted supernatant (in DMF) and 43 (in DMF) (FIG. 10D). […] Size-exclusion chromatography (SEC) [DMF/DMSO (9:1) as eluent] was applied to the precipitate and to the supernatant extract prepared from 300 μM of 46 (FIG. 10E). The first peak appeared at 18-20 min, and then the second peak at 38.5 min. The ratio of peak areas in the supernatant extract was 11:89, whereas that in the precipitate was 93:7. On the basis of a calibration curve prepared with poly(2-vinylpyridine) standards, the molecular size for the first and second peaks was expected to be >265 and <1 kDa, respectively. The large molecular size indicated for the first peak likely implies aggregation or assembly of the oligomers. The chromatograms for the samples prepared with 50 μM of 46 gave similar results but with higher purity compared with those at higher concentration.

[4] = biological target: T2, β-glucosidase from Agrobacterium sp. (Agrobacterium sp., UniProt P12614); experiment: Oligomerization of compound V with β-glucosidase
T2 construct: purchased Megazyme
T2 sequence (P12614 1-459): T1 sequence (P12614 1-459)
Procedure: The oligomerization of compound V was examined by treatment with the enzyme […]-glucosidase. The reaction mixture contained 50 μM of compound V and 200 nM of β-glucosidase (250-fold ratio). The reaction mixture was only faintly blue but upon centrifugation after 5 h of incubation, a blue precipitate was obtained. According to the colors of samples (FIG. 13, panel A), the yield of precipitate is low by comparison with our previously reported enzyme-substrate pairs (see Example 1). Multiple additions of enzyme (4×0.20 μM of enzyme stock, every 2 h) and longer incubation times (10 h or 24 h) were also tested but no increase in solution intensity or precipitate was observed. For the samples after 300 min of incubation, the precipitates suspended in H2O were screened by optical microscopy (FIG. 13, panel B) and DLS (FIG. 13, panel C). The size of aggregates is between 100 and 1000 nm as measured by DLS, which is consistent with the images obtained by optical microscopy (˜1 μm).
Quantitation of the indigogenic compounds in the precipitate and supernatant was carried out by absorption spectroscopy and multicomponent analysis (MCA) (M. Taniguchi, et al., Photochem. Photobiol., 2018, 94, 277-289) (FIG. 13, panels D and E). MCA analysis is essential due to the overlaid spectra of indigo and coumarin at 362 nm, the peak wavelength for the coumarin. Spectral deconvolution relied on knowledge of the molar absorption coefficient at 362 nm of coumarin (εcou362=2.0×10^4 M^−1 cm^−1 measured in DMF) and indigo model compound F19 (see Example 1 where F-19 is compound 43) shown in Chart 2 (εind362=0.81×10^4 M^−1 cm^−1 measured in DMSO/H2O, v/v=2/1); and the molar absorption coefficient of F19 at 630 nm (εind630=2.6×10^4 M^[…] cm^−1, measured in DMSO/H2O, v/v=2/1). The residual upon MCA was smaller than any of the components, as required for accurate analysis (Y. Mang, et al., Phytochem. Anal., 2018, 29, 205-216). In this manner, the precipitate is composed of 51.6 nmol of coumarin and 2.8 nmol of indigoid dye; the supernatant is composed of 11.1 nmol of coumarin and 0.3 nmol of indigoid dye.
Materials. DMF (HPLC grade) was purchased from Alfa Aesar. H2O (molecular biology grade) for buffer preparation was purchased from Millipore Sigma. Compound V (5.6 mg) was dissolved in DMF (26 μL) to prepare 100 mM stock solution. Pi buffer was prepared freshly at 10 mM, pH 7. The enzyme β-glucosidase from Agrobacterium sp. was purchased from MegaZyme and was dissolved in Pi buffer at 10 μM to prepare the stock solution.
To screen the oligomerization procedure of compound V, samples of Pi buffer (1859 μL), DMF (100 μL), β-glucosidase stock (40 μL) and compound V stock (1 μL) were mixed in a 2-mL Eppendorf tube. The resulting mixed sample (2.0 mL) contains 50 μM of compound V as the substrate and 0.20 μM of β-glucosidase as the enzyme. Three identical samples were prepared for different assays. For a control sample, 40 μL of Pi buffer was added as a replacement for the β-glucosidase stock solution. The tubes were incubated at 37° C. for 5 h, and pictures of the tubes were captured at 0, 15, 30, 60, 120, 180 and 300 min. After 300 min, the tubes were centrifuged at 20,000×g for 10 min to isolate any precipitate from the supernatant. No precipitate formed in the control sample.
Three samples were treated differently for three assays: (1) for sample 1, the precipitate was dissolved in 100 μL of DMF for absorption screening; (2) for sample 2, the precipitate was suspended in 100 μL of H2O for microscopic imaging; and (3) for sample 3, the precipitate was suspended in 1000 μL of H2O for dynamic light scattering (DLS) assay. The supernatant of sample 1 was freeze-dried under high vacuum and afterwards dissolved in 100 μL of DMF for absorption screening. The absorption spectra of the precipitates and supernatants were employed for quantitation of indigo and coumarin. […]

[5] = biological target: T1, β-glucosidase from Agrobacterium; experiment: Indigogenic reaction with β-glucosidase from Agrobacterium
Procedure: Next, the β-glucosidase from Agrobacterium sp. was investigated as the trigger enzyme for indigoid dye formation. […] The reaction was carried out using the enzyme (200 nM) and indoxyl-glucoside 33 (100 μM) in phosphate buffer (pH 4-9, containing 2% DMF) at 37° C. […] Note that with 200 nM enzyme and 100 μM substrate, complete reaction requires 500 turnovers of each enzyme.
Reactions with β-glucosidase from Agrobacterium. An indoxyl compound in DMF (2 μL, 5 mM) and β-glucosidase from Agrobacterium in 10 mM phosphate buffer [2 μL, 10 μM, pH 7.0, containing 50 mM NaCl and 0.6 M (NH4)2SO4] were mixed with 50 mM phosphate buffer (96 μL, pH 7.0). The reaction mixture was incubated at 37° C. for 2 h and then centrifuged for 3 min. Any precipitate was separated from the supernatant and dissolved in DMF (200 μL). The resulting solution was analyzed by absorption spectroscopy. The experiment was repeated three times.

[6] = indoxyl 1 mM, enzyme 1 unit/mL, 0.01M acetate buffer pH 5, 5% DMF, 37° C., 16-19 h, ϵ = 1.27 × 10^4 M^−1 cm^−1 measured for 4
[7] = 100 nmol compound V added, absorption spectroscopy and MCA
[8] = absorption spectroscopy and MCA

Compound: 5-[(Benzylcarbamoyl)oxy)]-1H-indole-3-yl β-D-glucopyranoside [Compound 16]
Indigoid dye formation with tritosomes [1]: low yield
Yield (%) β-glucosidase from almonds [2, 6]: 24%

Yield (%) β-glucosidase from almonds [2, 6]: <5%
Compound: C#CCOc1ccc2[nH]cc(O[C@@H]3O[C@H](CO)[C@@H](O)[C@H](O)[C@H]3O)c2c1 [Compound 25, 5-Propargyloxy-1H-indol-3-yl β-D-glucopyranoside]

Compound: 5-bromo-4-chloroindoxyl β-glucoside [Compound 42, reference compound]
Yield (%) β-glucosidase from almonds ([2]; as E1 but ϵ = 2.00 × 10^4 M^−1 cm^−1 reported for 5,5′-dibromo-4,4′-dichloroindigo): 74% and 74^e %

Compound: O=S(=O)([O-])CCC[N+]1(CCCO)CCN(c2nc(OCCOCCOCCOc3c(Br)cc4[nH]cc(O[C@@H]5O[C@H](CO)[C@@H](O)[C@H](O)[C@H]5O)c4c3Br)nc(OCCOCCOCCOc3c(Br)cc4[nH]cc(O[C@@H]5O[C@H](CO)[C@@H](O)[C@H](O)[C@H]5O)c4c3Br)n2)CC1 [Compound 46]
Total yield of indigoid dye (supernatant plus precipitate) ([3]; entries 1-4 of Table 2, [46] 300 to 10 μM): 17-29%
Yield of indigoid dye (%) supernatant ([3]; entry 1: [46] 300 μM, 2 h, phosphate buffer containing NaCl (0.05M), ε = 2.6 × 10^4): 6%
Yield of precipitate based on the monomer formula weight ([3]; larger scale (7.87 mg), conditions of entry 5 in Table 2): 49%
Particle size of the precipitate (DLS, number mean) ([3]; precipitate suspended in H2O, 300 μM of 46, entry 5 conditions): ~680 nm

Yield (%) β-glucosidase from almonds [2, 6]: <1%
Compound: COC(=O)COc1ccc2[nH]cc(O[C@@H]3O[C@H](CO)[C@@H](O)[C@H](O)[C@H]3O)c2c1 [Compound 22, 5-(Methoxycarbonyl)methoxy-1H-indol-3-yl β-D-glucopyranoside]

Yield (%) β-glucosidase from almonds [2, 6]: 68%
Compound: COC(=O)COc1ccc2[nH]cc(O[C@@H]3O[C@H](CO)[C@@H](O)[C@H](O)[C@H]3O)c2c1Br [Compound 23, 4-Bromo-5-(methoxycarbonyl)methoxy-1H-indol-3-yl β-D-glucopyranoside]

Yield (%) β-glucosidase from almonds [2, 6]: 56%
Compound: C#CCOc1ccc2[nH]cc(O[C@@H]3O[C@H](CO)[C@@H](O)[C@H](O)[C@H]3O)c2c1Br [Compound 26, 4-Bromo-5-propargyloxy-1H-indol-3-yl β-D-glucopyranoside]

Compound: 2,4-Bis[1-(3-(β-D-glucopyranosyloxy)-4,6-dibromo-1H-indol-5-yl)-1,4,7,10-tetraoxadec-10-yl]-6-[14-(3-(2-(1-azido-3,6,9,12,15-pentaoxoheptadecylamino)-4-[12-((4-methyl-2H-chromen-2-one-7-yl)amino)ethylamino]-1,3,5-triazin-6-yloxy)propyl)-4-(3-sulfopropyl)piperazin-1-yl]-1,3,5-triazine [Compound V]
Indigoid dye in the precipitate [4, 7]: 2.8 nmol
Indigoid dye in the supernatant [4, 7]: 0.3 nmol
Yield of indigoid dye (total) ([4]; 50 μM compound V, 200 nM β-glucosidase, 37° C., 5 h, MCA): 3.1%
Coumarin in the precipitate [4, 8]: 51.6 nmol
Coumarin in the supernatant [4, 8]: 11.1 nmol
Size of aggregates (optical microscopy) ([4]; precipitate after 300 min suspended in H2O): ~1 μm
Total quantity of indigoid dye ([4]; precipitate plus supernatant): 3.1 nmol
Total amount of coumarin calculated by MCA ([4]; precipitate plus supernatant, 100 nmol compound V added): 62.7 nmol

Compound: 5-{[(1R,8S,9s)-Bicyclo[6.1.0]non-4-yn-9-yl]methoxy}-4,6-dibromo-1H-indole-3-yl β-D-glucopyranoside [Compound 30]
Yield (%) β-glucosidase from Agrobacterium ([5]; as E4 but ϵ = 2.6 × 10^4 M^−1 cm^−1 measured for 43): 10% and 10 ± 0.4%
Yield (%) β-glucosidase from Agrobacterium ([5]; indoxyl 100 μM, enzyme 200 nM, 0.05M phosphate buffer pH 7.0, 2% DMF, 37° C., 2 h, n=3, ϵ = 1.27 × 10^4 M^−1 cm^−1): 21 ± 1%

— patent US12668646B2, “Cross-linking compounds and methods of use thereof” (North Carolina State University, priority 2019, dated 2026)
